What was measured:
Format in all cases: cell-based
Conditions in all cases: after 10, 20, 40 and 60 minutes at all dilutions 1:100, 1:200, 1:400, 1:800
[1] = tested on: Staphylococcus aereus; test: Antimicrobial testing by agar dilution, St. Aereus
Protocol: (§1) The antimicrobial properties of the 6-[4,4-bis(4-bromophenyl)-2,5-dioxoimidazolidin-1-yl]hexanoic acid were studied by the method of agar dilution. Test solutions of each compound was prepared in concentration of 1% using dimethylformamide as a solvent then they are diluted in physiological solution to obtain the final experimental dilutions 1:100, 1:200, 1:400, 1:800. The effect of these substances are compared with furacillin in a controllable study. The testing microbes used were gram positive bacteria Staphylococcus aereus, gram negative bacteria Escherichia Coli, Pseudomonas aeruginosa and Candida albicans fungi were taken. The experiments used for this survey were meat-pentonlu agar (EPA) for cultivation of bacteria and Saburo environment for fungi. Each experiment used 1 ml of test solution on each plate 500 min. Add 2 drops of emulsified with microbes feel. All experimental samples were taken from the agar after 10, 20, 40, 60 minutes in the environment on the basis of Patrk planted. Bacteria were cultivated at a temperature of 37° C. for 1 day and the mushroom was kept in a thermostat for 2 hours at a temperature of 28° C. in the. Then results were checked.

[2] = tested on: Escherichia Coli; test: Antimicrobial testing by agar dilution, E. Coli
Protocol: as §1

[3] = tested on: Pseudomonas aeruginosa; test: Antimicrobial testing by agar dilution, Ps. aeruginosa
Protocol: as §1

[4] = tested on: Candida albicans; test: Antimicrobial testing by agar dilution, Candida albicans
Protocol: as §1

O=C(O)CCCCCN1C(=O)NC(c2ccc(Br)cc2)(c2ccc(Br)cc2)C1=O [6-[4,4-bis(4-bromophenyl)-2,5-dioxoimidazolidin-1-yl]hexanoic acid]
higher inhibition activity: inhibition activity, Staphylococcus aereus [1] | inhibition activity, Escherichia Coli [2] | inhibition activity, Pseudomonas aeruginosa [3] | inhibition activity, Candida albicans [4]

From patent publication US12180167B1, “6-[4,4-bis(4-bromophenyl)-2,5-dioxoimidazolidin-1-yl]hexanoic acid as an antimicrobial compound” (KING FAISAL UNIVERSITY, priority 2024, dated 2024)
